Source: patent publication US10206890B2, “Pharmaceutical combination” (priority 2008, dated 2019)
“And” between values parts separate entries of the source, which are not always exact repeats. Equal values may be shown once. Where a name gives a salt, the structure may show the parent alone. Read-outs that look alike come from different tables or passages of the source.

Assays:
[1] = system: inflamed rat hind paw (carrageenan); experiment: c) In vivo experiments according to Randall-Selitto (carrageenan inflammatory pain, mechanical nociceptive threshold; isobolographic analysis; conditions: peak effect 15 min p. appl., interval in brackets; for ED50: Rattus norvegicus, 0.25 h
Method: The weight ratios of the components (a) and (b) that will lead to a supra-additive effect (synergistic effect) of the inventive pharmaceutical composition may be determined via the test of Randall and Selitto as described in Arch. Int. Pharmacodyn., 1957, 111, 409 to 419, which is a model for inflammatory pain. The respective part of the literature is hereby incorporated by reference and forms part of the present disclosure.
Acute inflammation is induced by an intraplantar injection of 0.1 ml of a carrageenan solution (0.5% in distilled water) into one hind paw. The mechanical nociceptive threshold is measured 4 hours after carrageenan injection using an Algesiometer (Ugo Basile, Italy). The device generates a mechanical force with a linear increase over time. The force is applied to the dorsal surface of the inflamed rat hind paw via a cone-shaped stylus with a rounded tip (2 mm tip diameter). The nociceptive threshold is defined as the force (in grams) at which the rat vocalises (cut-off force 250 g). The mechanical nociceptive threshold is measured at different timepoints after the drug or vehicle administration. The antinociceptive and antihyperalgesic activity of the tested substance is expressed as percentages of the maximal possible effect (% MPE). The group size is n=10.
The interactions studies presented herein were performed using equieffective doses of the two components, calculated from the ratio of the respective ED50 values of the components if administered alone.
The route of administration was intravenous (i.v.) for Tapentadol hydrochloride (A) and intraperitoneal (i.p.) for the anticonvulsants (antiepileptics) Lamotrigine, Lacosamide, Levetiracetam and Retigabine dihydrochloride. […] According to their respective timepoint of peak effect, A was applied 15 min and the anticonvulsant component 15 min before timepoint of measurement of the interaction-experiments (i. e. both components were applied simultaneously). Thus, the time point of ED50 calculation of the combination corresponds to the timepoint of the peak effect of the respective compound.

[2] = system: rats with tightly ligated L5, L6 spinal nerves (tactile allodynia); experiment: b) In vivo experiments according to Chung (anti-allodynic testing, single dose combinations vs sum of single effects); set-up: species or system rat; conditions: 30 min, ± SEM
Source text: The left L5 and L6 spinal nerves were exposed by removing a small piece of the paravertebral muscle and a part of the left spinous process of the L5 lumbar vertebra. The L5 and L6 spinal nerves were then carefully isolated and tightly ligated with silk (NC-silk black, USP 5/0, metric 1, Braun Melsungen AG, Melsungen, FRG). After checking hemostasis, the muscle and the adjacent fascia were closed with sutures and the skin was closed with sutures.
After operation, animals were allowed to recover for one week. Animals develop tactile allodynia which is stable for at least five weeks. For the assessment of tactile allodynia the rats were placed on a metal mesh covered with a plastic dome and were allowed to habituate until the exploratory behaviour diminished. Threshold for tactile allodynia was measured with an electronic von Frey anesthesiometer (Somedic, Sweden). Animals randomly assigned to groups of 10 for each test dose and vehicle, were tested 0.5 h before administration and on several time points after administration. The median of the withdrawal threshold for each animal at a given time is calculated from five individual stimulations with the electronic von Frey filament. Withdrawal thresholds of the injured paws are expressed as % maximal possible effect (% MPE) comparing predrug threshold of Chung-animals (=0% MPE) and control threshold of sham-animals (=100% MPE). A cut-off is set at 100% MPE. The effect of each compound and vehicle is calculated for each testing time point (e.g. 0.5, 1, 3 h post administration) as interindividual % MPE value (±SEM). Anti-allodynic efficacy is defined as increase of ipsi-lateral withdrawal threshold without effect on contra-lateral withdrawal threshold. Ten animals have been used in each group.
Effects of drug combinations are compared to the theoretical sum of the effects of each drug tested alone.

[3] = system: male Sprague-Dawley rats with ligated left L5/L6 spinal nerves (tactile allodynia); experiment: In vivo experiments according to Chung (spinal nerve ligation, tactile allodynia, electronic von Frey; isobolographic analysis); set-up: species or system rat; conditions: for contra-lateral paw withdrawal threshold, anti-nociceptive effect: 10 mg/kg i.v.; for ED50 (95% confidence interval), anti-allodynic efficacy, single substance / efficacy, increase in the withdrawal threshold of the ipsi-lateral hind paw: i.v.; for ED50 (95% confidence interval), anti-allodynic efficacy, single substance: calculated from peak effect vs. control values at 30 min after administration; for efficacy, increase in the withdrawal threshold of the ipsi-lateral hind paw: maximal efficacy over the doses tested (combination: highest dose 1 mg/kg+2.5 mg/kg), peak effect 30 min after administration
Source text: The weight ratios of components (a) and (b) that will lead to a supra-additive effect/synergistic effect of the inventive compositions may be determined in the test of Kim & Chung as described in Kim S H, Chung J M. An experimental model for peripheral mononeuropathy produced by segmental spinal nerve ligation in the rat. Pain 1992; 50: 355-63. Said reference is hereby incorporated by reference and forms part of the disclosure.
Ligatures were applied to the left L5/L6 spinal nerves of male Sprague-Dawley rats (140-160 g body weight, Janvier, Genest St. Isle, France). […] Three to four weeks after the operation the tactile allodynia threshold baseline (withdrawal threshold) was measured on the ipsilateral and contralateral hind paw by an electronic von Frey anaesthesiometer (Somedic, Schweden). After test and measurement of the baseline, (1R,2R)-3-(3-dimethylamino-1-ethyl-2-methyl-propyl)-phenol hydrochloride (hereinafter referred to as tapentadol hydrochloride or tapentadol-HCl), (S)-pregabalin as well as the inventive combination of tapentadol-HCl and (S)-pregabalin were each dissolved in 0.9% NaCl solution and injected by the intravenous (i.v.) route (application volume 5 ml/kg). Animals were randomly assigned to groups of 10 for each test dose and vehicle (0.9% NaCl solution) and tactile withdrawal thresholds were tested 0.5 h before administration and on several time points (0.5, 1 and 3 hours) after intravenous administration. Ipsi- and contralateral hindpaws were tested. The median of the withdrawal threshold for each animal at a given time is calculated from five individual stimulations with the electronic von Frey filament. Withdrawal thresholds of the injured paws are expressed as % MPE (Maximum possible effect) comparing predrug threshold of Chung-Animals (=0% MPE) and control threshold of sham-animals (100% MPE). A cut-off is set at 100% MPE. The effect of each compound and vehicle is calculated for each testing time point as interindividual % MPE value.
Data (anti-allodynic efficacy (% MPE), ipsi-lateral, paw withdrawal threshold (g), ipsi- and conralateral) were analysed by means of a two-factor analysis of variance (ANOVA) with repeated measures. In case of a significant treatment effect, post hoc analysis with Bonferroni adjustment was performed. Results were considered statistically significant if P<0.05.

[4] = ip, i.p., read-out: ED50 of the anticonvulsant applied alone
[5] = ip, read-out: ED50 of the anticonvulsant applied alone, i.p.

Nc1nnc(-c2cccc(Cl)c2Cl)c(N)n1 [Lamotrigine]
ED50 [1, 4]: 35.3 mg/kg | ED50 of the anticonvulsant applied alone ([1]; i.p.): 35.25 mg/kg

NCC1(CC(=O)O)CCCCC1 [Gabapentin]
Effect % MPE (time after administration of Tapentadol hydrochloride) ([2]; single substance 10 mg/kg iv (20 min before Tapentadol hydrochloride time point)): 3 ± 3% (30 min) % MPE

CC[C@@H](C(N)=O)N1CCCC1=O [Levetiracetam]
ED50 [1, 4]: 986 mg/kg | Effect % MPE (time after administration of Tapentadol hydrochloride) ([2]; single substance 20 mg/kg iv): 16 ± 4% (30 min) % MPE

COC[C@@H](NC(C)=O)C(=O)NCc1ccccc1 [Lacosamide]
ED50 [1, 5]: 35.9 mg/kg | Effect % MPE (time after administration of Tapentadol hydrochloride) ([2]; single substance 3 mg/kg iv): 24 ± 4% (30 min) % MPE

CCOC(=O)Nc1ccc(NCc2ccc(F)cc2)cc1N [Retigabine dihydrochloride]
ED50 [1, 5]: 5.09 mg/kg

CC[C@@H](c1cccc(O)c1)[C@@H](C)CN(C)C [Tapentadol hydrochloride, (1R,2R)-3-(3-dimethylamino-1-ethyl-2-methyl-propyl)-phenol hydrochloride]
ED50 ([1]; iv, read-out: ED50 of A (Tapentadol hydrochloride) applied alone, i.v.): 1.75 mg/kg | ED50 of A (Tapentadol hydrochloride) applied alone ([1]; i.v., listed as A, hydrochloride): 1.747 mg/kg and 1.749 mg/kg | contra-lateral paw withdrawal threshold, anti-nociceptive effect [3]: significant anti-nociceptive effects | ED50 (95% confidence interval), anti-allodynic efficacy, single substance [3]: 1.65 (1.20-2.35) mg/kg i.v. | efficacy, increase in the withdrawal threshold of the ipsi-lateral hind paw [3]: 94 % MPE | Effect % MPE (time after administration of Tapentadol hydrochloride) ([2]; single substance 1 mg/kg iv, hydrochloride): 18 ± 4% (30 min) % MPE and 13 ± 5% (30 min) % MPE

CC(C)C[C@H](CN)CC(=O)O [(S)-pregabalin]
contra-lateral paw withdrawal threshold, anti-nociceptive effect [3]: significant anti-nociceptive effects | ED50 (95% confidence interval), anti-allodynic efficacy, single substance [3]: 4.20 (3.37-5.43) mg/kg i.v. | efficacy, increase in the withdrawal threshold of the ipsi-lateral hind paw [3]: 67 % MPE

CC1(C)O[C@@H]2[C@@H](CO[C@@]3(COS(N)(=O)=O)OC(C)(C)O[C@@H]23)O1 [Topiramate]
Effect % MPE (time after administration of Tapentadol hydrochloride) ([2]; single substance 1 mg/kg iv): 22 ± 3% (30 min) % MPE
